ChEMBL document CHEMBL5724914, “Linking interpersonal differences in gut microbiota composition and drug biotransformation activity” (2024)

Experiments:
[1] = The drug is tested on WLS-086 corresponding to human gut metagenome with ENA study accession number: PRJEB37062 and ENA sample accession number: ERS12561752 for biotransformation under anaerobic condition. The drug concentrations were measured over 9 timepoints collected between 0 and 24 hours of incubation by liquid-chromatography-coupled mass spectrometry (LC–MS); settings: 2 µM
[2] = The drug is tested on WLS-310 corresponding to human gut metagenome with ENA study accession number: PRJEB37062 and ENA sample accession number: ERS12561785 for biotransformation under anaerobic condition. The drug concentrations were measured over 9 timepoints collected between 0 and 24 hours of incubation by liquid-chromatography-coupled mass spectrometry (LC–MS); settings: 2 µM
[3] = human gut metagenome, 24 h, 2 µM
[4] = The drug is tested on Z-004 corresponding to metagenome with ENA study accession number: PRJEB37062 and ENA sample accession number: ERS12561804 for biotransformation under anaerobic condition. The drug concentrations were measured over 9 timepoints collected between 0 and 24 hours of incubation by liquid-chromatography-coupled mass spectrometry (LC–MS); settings: 2 µM
[5] = The drug is tested on WLS-039 corresponding to human gut metagenome with ENA study accession number: PRJEB37062 and ENA sample accession number: ERS12561746 for biotransformation under anaerobic condition. The drug concentrations were measured over 9 timepoints collected between 0 and 24 hours of incubation by liquid-chromatography-coupled mass spectrometry (LC–MS); settings: 2 µM
[6] = human gut metagenome, 24 h, 2 µM; remark: listed apart in the source
[7] = The drug is tested on Z-005 corresponding to metagenome with ENA study accession number: PRJEB37062 and ENA sample accession number: ERS12561805 for biotransformation under anaerobic condition. The drug concentrations were measured over 9 timepoints collected between 0 and 24 hours of incubation by liquid-chromatography-coupled mass spectrometry (LC–MS); settings: 2 µM
[8] = The drug is tested on Z-025 corresponding to rabbit gut metagenome with ENA study accession number: PRJEB37062 and ENA sample accession number: ERS12561824 for biotransformation under anaerobic condition. The drug concentrations were measured over 9 timepoints collected between 0 and 24 hours of incubation by liquid-chromatography-coupled mass spectrometry (LC–MS); settings: 2 µM
[9] = human gut metagenome, 24 h, 2 µM; remark: listed apart in the source
[10] = human gut metagenome, 24 h, 2 µM; remark: listed apart in the source
[11] = human gut metagenome, 24 h, 2 µM; remark: listed apart in the source
[12] = human gut metagenome, 24 h, 2 µM; remark: listed apart in the source
[13] = The drug is tested on WLS-098 corresponding to human gut metagenome with ENA study accession number: PRJEB37062 and ENA sample accession number: ERS12561754 for biotransformation under anaerobic condition. The drug concentrations were measured over 9 timepoints collected between 0 and 24 hours of incubation by liquid-chromatography-coupled mass spectrometry (LC–MS); settings: 2 µM
[14] = The drug is tested on Z-008 corresponding to metagenome with ENA study accession number: PRJEB37062 and ENA sample accession number: ERS12561808 for biotransformation under anaerobic condition. The drug concentrations were measured over 9 timepoints collected between 0 and 24 hours of incubation by liquid-chromatography-coupled mass spectrometry (LC–MS); settings: 2 µM
[15] = human gut metagenome, 24 h, 2 µM; remark: listed apart in the source
[16] = The drug is tested on Z-016 corresponding to mouse gut metagenome with ENA study accession number: PRJEB37062 and ENA sample accession number: ERS12561815 for biotransformation under anaerobic condition. The drug concentrations were measured over 9 timepoints collected between 0 and 24 hours of incubation by liquid-chromatography-coupled mass spectrometry (LC–MS); settings: 2 µM
[17] = The drug is tested on WLS-090 corresponding to human gut metagenome with ENA study accession number: PRJEB37062 and ENA sample accession number: ERS12561753 for biotransformation under anaerobic condition. The drug concentrations were measured over 9 timepoints collected between 0 and 24 hours of incubation by liquid-chromatography-coupled mass spectrometry (LC–MS); settings: 2 µM
[18] = The drug is tested on WLS-006 corresponding to human gut metagenome with ENA study accession number: PRJEB37062 and ENA sample accession number: ERS12561741 for biotransformation under anaerobic condition. The drug concentrations were measured over 9 timepoints collected between 0 and 24 hours of incubation by liquid-chromatography-coupled mass spectrometry (LC–MS); settings: 2 µM
[19] = The drug is tested on Z-030 corresponding to mouse gut metagenome with ENA study accession number: PRJEB37062 and ENA sample accession number: ERS12561829 for biotransformation under anaerobic condition. The drug concentrations were measured over 9 timepoints collected between 0 and 24 hours of incubation by liquid-chromatography-coupled mass spectrometry (LC–MS); settings: 2 µM
[20] = human gut metagenome, 24 h, 2 µM; remark: listed apart in the source
Also: call rule not given here.

SMILES | Bacterial Biotransformation [1] | Bacterial Biotransformation [2] | Bacterial Biotransformation [3] | Bacterial Biotransformation [4] | Bacterial Biotransformation [5] | Bacterial Biotransformation [6] | Bacterial Biotransformation [7] | Bacterial Biotransformation [8] | Bacterial Biotransformation [9] | Bacterial Biotransformation [10] | Bacterial Biotransformation [11] | Bacterial Biotransformation [12] | Bacterial Biotransformation [13] | Bacterial Biotransformation [14] | Bacterial Biotransformation [15] | Bacterial Biotransformation [16] | Bacterial Biotransformation [17] | Bacterial Biotransformation [18] | Bacterial Biotransformation [19] | Bacterial Biotransformation [20]
COc1ccc2c(c1OC)C(=O)O[C@@H]2[C@H]1c2c(cc3c(c2OC)OCO3)CCN1C [NOSCAPINE] | Compound metabolized | Compound metabolized | Compound NOT metabolized | Compound NOT metabolized | Compound NOT metabolized | Compound NOT metabolized | Compound metabolized | Compound NOT metabolized | Compound metabolized | Compound metabolized | Compound NOT metabolized | Compound metabolized | Compound metabolized | Compound NOT metabolized | Compound NOT metabolized | Compound metabolized | Compound metabolized | Compound metabolized | Compound NOT metabolized | Compound NOT metabolized
CCCc1nc(C(C)(C)O)c(C(=O)OCc2oc(=O)oc2C)n1Cc1ccc(-c2ccccc2-c2nnn[nH]2)cc1 [OLMESARTAN MEDOXOMIL] | Compound metabolized | Compound metabolized | Compound NOT metabolized | Compound metabolized | Compound metabolized | Compound metabolized | Compound metabolized | Compound metabolized | Compound NOT metabolized | Compound metabolized | Compound metabolized | Compound metabolized | Compound NOT metabolized | Compound metabolized | Compound metabolized | Compound metabolized | Compound NOT metabolized | Compound metabolized | Compound NOT metabolized | Compound metabolized
CCN(CC)CC#CCOC(=O)C(O)(c1ccccc1)C1CCCCC1.Cl (stereo not given) [OXYBUTYNIN CHLORIDE] | Compound metabolized | Compound metabolized | Compound metabolized | Compound metabolized | Compound metabolized | Compound metabolized | Compound metabolized | Compound NOT metabolized | Compound metabolized | Compound metabolized | Compound metabolized | Compound metabolized | Compound metabolized | Compound NOT metabolized | Compound metabolized | Compound NOT metabolized | Compound metabolized | Compound metabolized | Compound NOT metabolized | Compound metabolized
Fc1ccc([C@@H]2CCNC[C@H]2COc2ccc3c(c2)OCO3)cc1 [PAROXETINE] | Compound metabolized | Compound metabolized | Compound NOT metabolized | Compound NOT metabolized | Compound metabolized | Compound metabolized | Compound metabolized | Compound NOT metabolized | Compound NOT metabolized | Compound metabolized | Compound metabolized | Compound NOT metabolized | Compound metabolized | Compound NOT metabolized | Compound metabolized | Compound NOT metabolized | Compound metabolized | Compound NOT metabolized | Compound NOT metabolized | Compound NOT metabolized
O=c1[nH]c2ccccc2n1C1CCN(CCCC(c2ccc(F)cc2)c2ccc(F)cc2)CC1 [PIMOZIDE] | Compound metabolized | Compound metabolized | Compound NOT metabolized | Compound NOT metabolized | Compound NOT metabolized | Compound NOT metabolized | Compound metabolized | Compound metabolized | Compound metabolized | Compound metabolized | Compound metabolized | Compound NOT metabolized | Compound metabolized | Compound metabolized | Compound metabolized | Compound metabolized | Compound metabolized | Compound metabolized | Compound NOT metabolized | Compound NOT metabolized
